Results on 25 molecules are retold here after US12134608B2, “Benzimidazole derivatives as dual histamine H1 and histamine H4 receptor ligands” (BIOPROJET, priority 2017, dated 2024).

Read-outs that look alike come from different tables or passages of the source.

Series [1] deals with human H1 receptor (Homo sapiens, UniProt P35367). In words: hH1 GTPgS: inhibition of agonist-induced stimulation of radioactive GTP-gamma-S binding at recombinant receptors. The format is biochemical. On the procedure: (§1) Activity at the human H1 receptor is determined by the inhibition of agonist-induced stimulation of radioactive GTP-gamma-S binding at recombinant receptors. […] Affinity for the human H4 receptor is determined by binding competition.
Sequence of human H1 receptor (P35367 whole entry): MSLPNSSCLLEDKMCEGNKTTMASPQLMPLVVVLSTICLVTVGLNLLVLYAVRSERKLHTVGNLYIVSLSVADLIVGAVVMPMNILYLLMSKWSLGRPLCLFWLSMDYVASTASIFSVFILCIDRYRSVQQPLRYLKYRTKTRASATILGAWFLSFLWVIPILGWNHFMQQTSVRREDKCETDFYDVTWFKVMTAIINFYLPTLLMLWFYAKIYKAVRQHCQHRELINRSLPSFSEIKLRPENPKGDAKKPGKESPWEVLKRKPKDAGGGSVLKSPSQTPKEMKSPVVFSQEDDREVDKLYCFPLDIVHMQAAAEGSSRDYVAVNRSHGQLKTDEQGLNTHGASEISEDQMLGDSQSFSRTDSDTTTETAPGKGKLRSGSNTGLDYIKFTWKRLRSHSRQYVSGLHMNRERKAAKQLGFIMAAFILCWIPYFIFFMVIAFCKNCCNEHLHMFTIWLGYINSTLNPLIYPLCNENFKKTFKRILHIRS

In series [2] the target is hERG channel (Homo sapiens, UniProt Q12809). In words: hERG competition binding. The source says:
Compounds that are antagonists or inverse agonists at the human H1 receptor are often found to bind to the hERG channel, giving rise to arrhythmia possibly leading to sudden cardiac arrest. This led to the withdrawal of several medicines from the clinics. This parameter has thus been evaluated for the compounds of the present application.
The discriminative recognition of hERG channel by the eutomer versus the distomer is shown in the table below where the reported values are the inhibition constant determined by competition binding: […]

For series [3], the target named is human H4 receptor (Homo sapiens, UniProt Q9H3N8). Description: hH4 binding competition. On the procedure: as §1
Sequence of human H4 receptor (Q9H3N8 whole entry): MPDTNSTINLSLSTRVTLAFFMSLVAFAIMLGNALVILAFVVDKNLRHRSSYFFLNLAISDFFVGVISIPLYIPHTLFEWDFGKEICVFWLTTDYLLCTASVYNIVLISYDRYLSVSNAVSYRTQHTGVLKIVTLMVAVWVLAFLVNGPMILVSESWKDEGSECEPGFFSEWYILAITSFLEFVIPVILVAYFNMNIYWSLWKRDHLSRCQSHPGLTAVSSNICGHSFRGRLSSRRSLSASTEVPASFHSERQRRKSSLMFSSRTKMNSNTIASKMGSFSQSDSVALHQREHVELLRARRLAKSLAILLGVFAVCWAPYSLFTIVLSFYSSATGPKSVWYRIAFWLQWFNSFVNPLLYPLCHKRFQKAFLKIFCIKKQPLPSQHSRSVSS
Series [4] is described as follows: Bioavailability / lung exposure after per os administration to mice. The format is in vivo.
The nature of series [5]: Brain exposure: exposure over 8 hours in brain and plasma after per os administration to mice. The format is in vivo. As to conditions: for Kp: mouse, brain/plasma, oral, examples of the present invention, read-out: ratio of the exposure in brain over the one in plasma. On the procedure:
Compounds that are acting as […] or inverse agonists on the histamine H1 receptor should not enter the brain. This would lead to unwanted side effects such as sedation and weight gain. The efficiency for entering into the brain may be assessed by administrating the compound per os to mice and measuring the exposure over 8 hours in the brain and in the plasma. The result may be expressed by the ratio of the exposure in brain over the one in plasma.

The conditions of series [6]: allergic conjunctivitis; Nakano Y et al. Eur J Pharmacol 2009; cited from earlier work.
Setting [7] is: eutomers of the invention and their distomers.
Setting [8] is: comparative compounds of WO 2012/041860, eutomer and distomer.

Sequence of hERG channel (Q12809 whole entry): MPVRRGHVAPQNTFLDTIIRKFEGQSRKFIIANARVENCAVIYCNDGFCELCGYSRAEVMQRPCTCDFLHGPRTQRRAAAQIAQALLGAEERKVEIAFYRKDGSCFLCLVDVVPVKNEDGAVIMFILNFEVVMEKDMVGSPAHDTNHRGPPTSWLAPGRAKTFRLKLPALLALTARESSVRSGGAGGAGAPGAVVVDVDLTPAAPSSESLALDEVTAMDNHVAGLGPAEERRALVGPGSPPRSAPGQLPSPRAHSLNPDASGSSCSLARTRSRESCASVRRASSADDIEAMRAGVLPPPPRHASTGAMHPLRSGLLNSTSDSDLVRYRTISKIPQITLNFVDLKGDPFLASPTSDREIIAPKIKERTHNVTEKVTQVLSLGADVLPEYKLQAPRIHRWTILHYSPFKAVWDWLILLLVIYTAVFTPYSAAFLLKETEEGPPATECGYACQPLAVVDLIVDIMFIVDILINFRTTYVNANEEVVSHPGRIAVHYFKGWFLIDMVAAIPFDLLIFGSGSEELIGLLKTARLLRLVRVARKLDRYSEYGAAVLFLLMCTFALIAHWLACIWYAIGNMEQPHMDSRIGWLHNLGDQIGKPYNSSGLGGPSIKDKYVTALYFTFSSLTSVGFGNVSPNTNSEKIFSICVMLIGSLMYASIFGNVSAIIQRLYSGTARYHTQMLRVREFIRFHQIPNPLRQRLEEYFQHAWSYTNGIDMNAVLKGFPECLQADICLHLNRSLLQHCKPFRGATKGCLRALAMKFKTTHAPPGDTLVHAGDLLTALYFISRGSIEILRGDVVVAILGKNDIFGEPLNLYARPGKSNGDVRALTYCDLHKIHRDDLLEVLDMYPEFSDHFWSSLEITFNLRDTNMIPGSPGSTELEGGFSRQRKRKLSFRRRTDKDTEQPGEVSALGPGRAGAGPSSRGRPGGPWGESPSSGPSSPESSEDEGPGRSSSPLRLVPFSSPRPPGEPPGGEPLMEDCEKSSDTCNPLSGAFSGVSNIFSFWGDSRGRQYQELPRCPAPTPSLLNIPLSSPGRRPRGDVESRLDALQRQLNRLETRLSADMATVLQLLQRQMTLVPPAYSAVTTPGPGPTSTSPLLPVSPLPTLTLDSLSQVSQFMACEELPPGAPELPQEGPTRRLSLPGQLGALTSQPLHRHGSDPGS

On to `CN1CCC(OC(c2nc3ccccc3[nH]2)c2cccc(F)c2O)CC1` (single isomer, unassigned) [Example 1 Distomer A], for which the Kb in series [1] worked out at 225 nM. In addition, the Ki in series [2] (setting [7]) worked out at 4210 nM; in series [3], 788 nM.

Regarding `CN1CCC(OC(c2nc3ccccc3[nH]2)c2cccc(F)c2O)CC1` (single isomer, unassigned) [Example 1], the “lung AUC” value in series [4] (10 mg/kg) worked out at 20486 ng·h/g. Moreover, the Kp in series [5] (10 mg/kg) worked out at 0.2.

In the case of `CN1CCC(OC(c2nc3ccc(Cl)c(F)c3[nH]2)c2ccccc2O)CC1` (single isomer, unassigned) [Example 3 Distomer A], the Kb in series [1] turned out to be 156 nM. Further, the values for the Ki in series [2] (setting [7]) and in series [3] were 783 nM and 42 nM, respectively.

Turning to `CN1CCC(OC(c2nc3ccc(Cl)c(F)c3[nH]2)c2ccccc2O)CC1` (single isomer, unassigned) [Example 3], the Kb in series [1] is 1.43 nM. For the same molecule, in series [4] (1 mg/kg), the “lung AUC” value is 10037 ng·h/g. Moreover, the Ki amounted to 2580 nM in series [2] (setting [7]) and 0.61 nM in series [3]. For the same molecule, the Kp in series [5] (1 mg/kg) was 0.

Take `Cc1cccc2nc(C(OC3CCN(C)CC3)c3ccccc3O)[nH]c12` (single isomer, unassigned) [Example 4 Distomer A]: in series [1], the Kb was found to be 133 nM. In addition, the Ki in series [2] (setting [7]) is 2780 nM; in series [3] it was 491 nM.

Turning to `Cc1cccc2nc(C(OC3CCN(C)CC3)c3ccccc3O)[nH]c12` (single isomer, unassigned) [Example 4], the Kb in series [1] turned out to be 0.165 nM. For the same molecule, in series [4] (1 mg/kg), the “lung AUC” value is 1144 ng·h/g. The Ki was 21300 nM in series [2] (setting [7]) and 2.87 nM in series [3]. Besides, the Kp in series [5] (1 mg/kg) was determined as 0.3.

With `CN1CCC(OC(c2nc3cc(F)ccc3[nH]2)c2ccccc2O)CC1` (single isomer, unassigned) [Example 5 Distomer A], the Kb in series [1] came out at 97.5 nM. Besides, the Ki in series [2] (setting [7]) stood at 646 nM; in series [3], 249 nM.

Turning to `CN1CCC(OC(c2nc3cc(F)ccc3[nH]2)c2ccccc2O)CC1` (single isomer, unassigned) [Example 5], the Kb in series [1] came to 1.65 nM. In series [4] (1 mg/kg), the “lung AUC” value was 1264 ng·h/g. The Ki in series [2] (setting [7]) turned out to be 3210 nM; in series [3], 0.915 nM.

As for `CN1CCC(OC(c2nc3cccc(Cl)c3[nH]2)c2ccccc2O)CC1` (single isomer, unassigned) [Example 6 Distomer A], the Kb in series [1] amounted to 598 nM. Moreover, the inhibitory constant (Ki) stood at 1490 nM in series [2] (setting [7]) and 474 nM in series [3].

For the molecule `CN1CCC(OC(c2nc3cccc(Cl)c3[nH]2)c2ccccc2O)CC1` (single isomer, unassigned) [Example 6], the Kb in series [1] came to 1.25 nM. Besides, the “lung AUC” value in series [4] (1 mg/kg) was 6316 ng·h/g. Also, the Ki in series [2] (setting [7]) stood at 12500 nM; in series [3] it was 3.42 nM. Besides, the Kp in series [5] (1 mg/kg) came out at 0.

Regarding `Cc1c(Cl)ccc2nc(C(OC3CCN(C)CC3)c3ccccc3O)[nH]c12` (single isomer, unassigned) [Example 7 Distomer A], in series [1], the Kb amounted to 132 nM. The results for the Ki in series [2] (setting [7]) and in series [3] were 586 nM and 73.1 nM, respectively.

Turning to `Cc1c(Cl)ccc2nc(C(OC3CCN(C)CC3)c3ccccc3O)[nH]c12` (single isomer, unassigned) [Example 7], the Kb in series [1] amounted to 1.87 nM. Besides, the “lung AUC” value in series [4] (1 mg/kg) amounted to 1169 ng·h/g. Besides, the Ki came out at 3010 nM in series [2] (setting [7]) and 0.727 nM in series [3].

In series [2] (setting [8]), `Cc1ccc(C(OC2CCN(C)CC2)c2nc3ccc(F)cc3[nH]2)c(O)c1F` (single isomer, unassigned) [drawing 27 Distomer, reference compound] showed a Ki of 799 nM. In other words, the sub-micromolar range.

`Cc1ccc(C(OC2CCN(C)CC2)c2nc3ccc(F)cc3[nH]2)c(O)c1F` (single isomer, unassigned) [drawing 27 Eutomer, reference compound]: the Ki in series [2] (setting [8]) was 220 nM.

As to `CN1CCC(O[C@H](c2nc3ccccc3[nH]2)c2cccc(F)c2O)CC1` [Example 1, (S)-2-[(1H-benzimidazol-2-yl)(1-methylpiperidin-4-yloxy)methyl]-6-fluorophenol], the Kb in series [1] is 2.18 nM. In addition, the inhibition constant Ki in series [2] (setting [7]) stood at 11400 nM; in series [3] it was 5.02 nM.

Turning to `Cc1ccc(C(OC2CCN(C)CC2)c2nc3ccccc3[nH]2)c(F)c1` (stereo not shown) [drawing 24 Distomer, reference compound], the affinity in series [2] (setting [8]), expressed as Ki, was 363 nM.

`Cc1ccc(C(OC2CCN(C)CC2)c2nc3ccccc3[nH]2)c(F)c1` (stereo not shown) [drawing 24 Eutomer, reference compound] returned a Ki in series [2] (setting [8]) of 503 nM.

Turning to `Cc1ccc(C(OC2CCN(C)CC2)c2nc3ccccc3[nH]2)c(O)c1F` (stereo not shown) [drawing 25 Distomer, reference compound], in series [2] (setting [8]), the Ki came to 5700 nM.

In series [2] (setting [8]), `Cc1ccc(C(OC2CCN(C)CC2)c2nc3ccccc3[nH]2)c(O)c1F` (stereo not shown) [drawing 25 Eutomer, reference compound] displayed a Ki of 3100 nM.

In series [2] (setting [8]), `CN1CCC(OC(c2nc3ccccc3[nH]2)c2ccc(F)c(F)c2O)CC1` (stereo not shown) [drawing 26 Distomer, reference compound] returned a Ki of 32000 nM.

The molecule `CN1CCC(OC(c2nc3ccccc3[nH]2)c2ccc(F)c(F)c2O)CC1` (stereo not shown) [drawing 26 Eutomer, reference compound] returned a Ki in series [2] (setting [8]) of 18000 nM. Against the preceding molecule, the Ki is about 1.8-fold lower.

In series [2] (setting [8]), `CN1CCC(OC(c2nc3ccccc3[nH]2)c2ccc(Cl)c(F)c2O)CC1` (stereo not shown) [drawing 28 Distomer, reference compound] had a Ki of 8430 nM.

As for `CN1CCC(OC(c2nc3ccccc3[nH]2)c2ccc(Cl)c(F)c2O)CC1` (stereo not shown) [drawing 28 Eutomer, reference compound], the affinity in series [2] (setting [8]) corresponds to a Ki of 6680 nM.

Regarding `C[C@@H]1CN([C@H]2CC[C@](C#N)(c3ccc(F)cc3)CC2)CC[C@]1(C(=O)O)c1ccccc1` [levocabastine], in series [6], the eye scratching behavior entry is “inhibited eye scratching behavior”.

With “(S)-2-[(1H-benzimidazol-2-yl)(1-methylpiperidin-4-yloxy)methyl]-6-fluorophenol [Example 1]”, the “ratio of the exposure in brain over the one in plasma” value in series [5] (10 mg/kg, comparative compounds, example numbers of WO2012/041860) is recorded as 13.
